The values below come from US8715628B1, “Cosmetic compositions and methods for inhibiting or reducing trypsin activity” (The Procter & Gamble Company, priority 2011, dated 2014).

This test concerns the target T1, Trypsin from a bovine pancreas (Bos taurus, UniProt P00760).
T1 construct: Trypsin from a bovine pancreas; purchased Sigma-Aldrich T8802; host or cells: bovine pancreas (tissue-derived)
T1 sequence (P00760 24-246): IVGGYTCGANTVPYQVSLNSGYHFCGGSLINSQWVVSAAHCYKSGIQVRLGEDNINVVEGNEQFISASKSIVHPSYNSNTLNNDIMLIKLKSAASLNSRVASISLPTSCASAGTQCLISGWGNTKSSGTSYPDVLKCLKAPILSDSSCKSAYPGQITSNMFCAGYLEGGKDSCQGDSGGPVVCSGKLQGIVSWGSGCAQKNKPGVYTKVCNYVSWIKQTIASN
The test is described as follows: Trypsin assay (fluorogenic substrate Z-Phe-Arg-7-amido-4-methylcoumarin, kinetic slope vs vehicle control). Type of test: biochemical. The conditions noted are these: single-well values, n=8 wells. Here is the method:
Trypsin from a bovine pancreas (available from Sigma-Aldrich, USA, Catalog #T8802) is diluted in phosphate buffered saline (PBS) to make a stock of about 0.001% trypsin. In a 96 well white plate with clear bottom (e.g., Corning Costar #3904 available from _VWR International, LLC, Pennsylvania, USA), about 90 uL of 0.001% trypsin stock is mixed with about 10 uL of a test compound (e.g., N-undecylenoyl-L-phenylalanine) or vehicle control, such as dimethyl sulfoxide (DMSO) or water. Typically, there are 8 control wells per plate. The assay is initiated by the addition of 100 uL of the substrate, Z-Phe-Arg-7-amido-4-methylcoumarin (e.g., Calbiochem Catalog #03-32-1501-10 mM in PBS available from Life Technologies, California, USA) and the well plate is monitored in a fluorescent plate reader (e.g., a Gemini plate reader) with an excitation wavelength of 360 nm and an emission wavelength of 460 nm. The reaction progress is measured in a kinetic mode for 5 minutes. SoftMaxPro Data Analysis Software (available from Molecular Devices, Inc.) is used to fit a line to the data points for each well, and the slopes of the lines are then calculated. The slopes of each test compound well are compared to the average of the slopes of the vehicle control wells of a plate to determine the percentage of trypsin activity using equation (1) below. As the trypsin hydrolyzes the substrate, the fluorescence of the 7-amido-coumarin group increases, causing a growth in the signal which reflects the level of trypsin activity. An inhibitor attenuates the fluorescence growth resulting in a smaller slope. Percent(%)trypsin activity=[slope of test well]/[average slope of vehicle control wells] (1)
Using generally the method outlined above, the percentage of trypsin activity was measured for 1:900 dilution of 1% N-undecylenoyl-L-phenylalanine, 3% myo-inositol, 5% niacinamide, and 5% hexyldecanol using a sample size of n=8 wells for each compound. […]

Molecules are shown by their SMILES. Values joined by “and” are separate entries in the source; they are usually repeats but may differ in a detail not shown here. Identical values can stand only once.

`CCCCCCCCC(CO)CCCCCC` (stereo not shown) [Hexyldecanol, 2-Hexyldecan-1-ol]: under “1:900 dilution of 5% hexyldecanol”, the “% Activity (percentage of trypsin activity)” value was 87.1% and 90.7% and 85.7% and 100.0% and 112.4% and 112.0% and 88.7% and 95.4%. Regarding `O[C@H]1[C@H](O)[C@@H](O)[C@H](O)[C@@H](O)[C@H]1O` [Myo-Inositol, myo-inositol], the “% Activity (percentage of trypsin activity)” value (1:900 dilution of 3% myo-inositol) was 93.8% and 112.4% and 101.4% and 108.9% and 108.0% and 121.4% and 95.6% and 109.2%. Turning to `C=CCCCCCCCCC(=O)N[C@@H](Cc1ccccc1)C(=O)O` [N-undecylenoyl-L-phenylalanine], the “% Activity (percentage of trypsin activity)” value (1:900 dilution of 1% N-undecylenoyl-L-phenylalanine, >100% up-regulation, <100% inhibition) is 91.4% and 104.9% and 97.2% and 100.5% and 121.8% and 116.3% and 79.9% and 99.8%. For the molecule `NC(=O)c1cccnc1` [Niacinamide, niacinamide], the “% Activity (percentage of trypsin activity)” value (1:900 dilution of 5% niacinamide) was 106.0% and 91.8% and 91.3% and 107.7% and 111.1% and 109.1% and 93.9% and 88.7%.
